Test results published in the supplement of paper PMC10307832.

How the values were obtained:
Assay in all cases: relative viability (nuclei count vs DMSO), 5 days (fraction); higher = more cells survive
[1] = compound: Cc1ccc(C(=O)Nc2ccc(CN3CCN(C)CC3)c(C(F)(F)F)c2)cc1C#Cc1cnc2cccnn12 [Ponatinib] + COc1cccc2cc(-c3nc([C@H]4CC[C@H](C(=O)O)CC4)n4ncnc(N)c34)[nH]c12 [OSI-027] (partner 0.5 µM)
Summary of the method: (§1)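 One day after seeding in 1536-well plates, lung cancer cell lines were dosed by pin tool. Dosing was either single-drug or a fixed anchor-drug dose plus five library-drug doses (not always all listed) in √10 steps. After 5 days, nuclei were stained in one fix-and-stain step and counted on 4× images, and relative viability is the nuclei count of treated wells over that of vehicle wells, given as the median of duplicate plates.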

[2] = compound: Cc1ccc(C(=O)Nc2ccc(CN3CCN(C)CC3)c(C(F)(F)F)c2)cc1C#Cc1cnc2cccnn12 [Ponatinib] + O=C(CCCCCCC(=O)Nc1ccccc1)NO [Vorinostat] (partner 1 µM)
Summary of the method: as §1

[3] = compound: Cc1ccc(Nc2nccc(N(C)c3ccc4c(C)n(C)nc4c3)n2)cc1S(N)(=O)=O [Pazopanib] + CC1(C)CCC(c2ccc(Cl)cc2)=C(CN2CCN(c3ccc(C(=O)NS(=O)(=O)c4ccc(N[C@H](CCN5CCOCC5)CSc5ccccc5)c(S(=O)(=O)C(F)(F)F)c4)cc3)CC2)C1 [Navitoclax] (partner 0.5 µM)
Summary of the method: as §1

[4] = compound: Cc1ccc(Nc2nccc(N(C)c3ccc4c(C)n(C)nc4c3)n2)cc1S(N)(=O)=O [Pazopanib] + C[C@]1(O)C[C@@H](c2nc(-c3ccc4ccc(-c5ccccc5)nc4c3)c3c(N)nccn32)C1 [Linsitinib] (partner 1 µM)
Summary of the method: as §1

Cell Line	relative viability ([1]; first compound 0.002 µM)	relative viability ([1]; first compound 0.006325 µM)	relative viability ([1]; first compound 0.06325 µM)	relative viability ([1]; first compound 0.2 µM)	relative viability ([2]; first compound 0.002 µM)	relative viability ([2]; first compound 0.006325 µM)	relative viability ([2]; first compound 0.06325 µM)	relative viability ([2]; first compound 0.2 µM)	relative viability ([3]; first compound 0.01 µM)	relative viability ([3]; first compound 0.03162 µM)	relative viability ([3]; first compound 0.1 µM)	relative viability ([3]; first compound 0.3162 µM)	relative viability ([3]; first compound 1 µM)	relative viability ([4]; first compound 0.01 µM)	relative viability ([4]; first compound 0.03162 µM)	relative viability ([4]; first compound 0.1 µM)	relative viability ([4]; first compound 0.3162 µM)	relative viability ([4]; first compound 1 µM)
201T	0.622	0.724	0.796	0.711	0.965	0.992	1.05	0.939	1.21	1.22	1.26	1.18	1.17	0.942	1.04	1.06	1.06	0.989
A549	–	–	–	–	–	–	–	–	1.16	1.18	1.21	1.21	1.26	0.452	0.638	0.591	0.598	0.757
A-427	0.49	0.429	0.396	0.215	0.829	0.904	1.03	0.881	1.03	1.07	0.977	0.941	1.04	1.09	1.09	1.13	1.14	1.16
ABC-1	0.394	0.513	0.47	0.393	0.786	1.06	0.988	0.994	–	–	–	–	–	0.835	0.917	0.751	0.738	0.779
BEN	0.3	0.305	0.312	0.332	0.562	0.631	0.666	0.546	0.0655	0.0679	0.0737	0.0724	0.0586	0.819	0.969	0.894	0.956	0.898
CAL-12T	0.571	0.523	0.568	0.418	0.958	0.666	0.864	0.876	1.26	1.15	1.25	1.27	1.34	0.83	0.927	0.792	0.941	0.981
COR-L23	0.707	0.73	0.766	0.604	0.31	0.403	0.52	0.462	0.971	1.08	0.985	0.978	1.06	1.02	1.01	0.988	1.15	0.975
COR-L 105	0.638	0.807	1.03	0.744	0.802	0.953	0.899	0.837	0.891	0.698	0.787	0.732	0.773	0.909	0.964	1.1	0.822	1.21
Calu-6	–	–	–	–	–	–	–	–	0.87	0.863	0.848	0.768	0.842	0.865	1.07	0.957	0.908	1.04
ChaGo-K-1	0.465	0.594	0.571	0.493	0.699	0.732	0.664	0.648	0.935	1.07	0.997	0.792	1.06	–	–	–	–	–
EBC-1	–	–	–	–	–	–	–	–	0.364	0.436	0.454	0.442	0.427	0.964	0.979	0.977	0.922	0.979
EKVX	0.66	0.729	0.829	0.706	0.762	0.822	0.927	0.826	0.834	0.926	0.97	0.921	1.02	0.95	1.04	0.869	1.03	1.04
EMC-BAC-2	0.368	0.376	0.39	0.368	0.288	0.337	0.427	0.368	1.04	1.21	1.15	1.15	1.15	0.758	0.855	0.864	0.84	0.803
EPLC-272H	0.283	0.278	0.299	0.268	0.461	0.525	0.579	0.545	1.09	1.09	1.21	1.16	1.1	0.98	1.13	1.25	1.26	1.17
H3255	0.666	0.566	0.613	0.526	0.613	0.85	0.75	0.782	0.488	0.523	0.548	0.536	0.572	0.888	0.954	1.01	0.814	1.03
HARA	0.435	0.497	0.476	0.393	–	0.491	0.548	0.46	1.2	1.03	1.13	1.15	1.2	0.916	0.862	1	1.03	1.03
HCC-15	0.643	0.677	0.843	0.599	0.826	0.829	0.949	0.809	0.698	0.706	0.743	0.713	0.815	0.872	0.905	0.94	0.882	1.03
HCC-44	0.482	0.413	0.402	0.408	1.1	1.07	1.07	1.07	0.87	0.896	1	0.82	0.984	0.575	0.673	0.678	0.582	0.722
HCC-78	0.332	0.418	0.366	0.528	0.458	0.486	0.497	0.406	0.493	0.813	0.796	0.828	0.694	0.403	0.578	0.435	0.454	0.668
HCC-366	0.821	0.984	1	0.655	0.329	0.318	0.416	0.317	1.02	1.11	1.14	0.984	1.19	0.472	0.73	0.674	0.828	0.885
HCC-827	0.681	0.833	0.739	0.702	0.736	0.78	0.821	0.801	1.06	1.02	1.11	1.07	0.98	1.01	0.935	0.938	0.933	0.849
HOP-62	0.727	0.759	0.883	0.72	0.516	0.509	0.682	0.597	1.13	1.08	1.01	1.03	0.944	0.9	0.973	–	1	0.859

Cell Line	relative viability ([1]; first compound 0.002 µM)	relative viability ([1]; first compound 0.006325 µM)	relative viability ([1]; first compound 0.06325 µM)	relative viability ([1]; first compound 0.2 µM)	relative viability ([2]; first compound 0.002 µM)	relative viability ([2]; first compound 0.006325 µM)	relative viability ([2]; first compound 0.06325 µM)	relative viability ([2]; first compound 0.2 µM)	relative viability ([3]; first compound 0.01 µM)	relative viability ([3]; first compound 0.03162 µM)	relative viability ([3]; first compound 0.1 µM)	relative viability ([3]; first compound 0.3162 µM)	relative viability ([3]; first compound 1 µM)	relative viability ([4]; first compound 0.01 µM)	relative viability ([4]; first compound 0.03162 µM)	relative viability ([4]; first compound 0.1 µM)	relative viability ([4]; first compound 0.3162 µM)	relative viability ([4]; first compound 1 µM)
IA-LM	–	–	–	–	0.913	0.875	0.861	0.783	0.815	0.782	0.778	0.792	0.625	0.428	0.553	0.527	0.613	0.622
LC-2-ad	0.673	0.732	0.775	0.678	0.653	0.667	0.626	0.591	0.411	0.48	0.588	0.485	0.335	0.813	0.778	0.868	0.8	0.842
LCLC-97TM1	0.448	0.561	0.606	0.28	0.806	0.748	0.665	0.535	–	0.365	0.427	0.547	0.655	–	0.229	0.154	0.2	0.211
LCLC-103H	0.43	0.382	0.453	0.419	0.701	0.821	0.848	0.765	–	–	–	–	–	0.846	1.22	1.06	1.04	1.14
LK-2	0.151	0.217	0.162	0.147	0.261	0.284	0.341	0.345	0.67	0.925	0.863	0.788	0.821	0.486	0.564	0.475	0.517	0.524
LOU-NH91	0.675	0.762	0.746	0.741	0.889	0.988	1.01	0.873	0.718	0.701	0.732	0.843	0.766	0.89	0.98	0.984	1.04	0.935
LU99A	0.299	0.319	0.32	0.278	0.439	0.519	0.535	0.611	0.697	0.819	0.769	0.773	0.843	0.377	0.522	0.589	0.565	0.52
NCI-H358	0.813	0.816	0.998	0.672	0.644	0.634	0.669	0.551	–	–	–	–	–	0.875	0.626	0.82	0.993	0.821
NCI-H522	0.641	0.683	0.65	0.578	0.853	0.964	0.95	0.928	–	–	–	–	–	–	–	–	–	–
NCI-H650	0.378	0.49	0.456	0.466	0.3	0.441	0.444	0.447	–	–	–	–	–	0.738	1.1	0.808	0.92	0.839
NCI-H661	0.669	0.707	0.763	0.666	0.735	0.775	0.831	0.819	–	–	–	–	–	0.44	0.637	0.581	0.541	0.672
NCI-H1299	–	–	–	–	–	–	–	–	1.04	1.03	1.03	1.1	1.02	0.902	1.02	1.01	0.97	0.932
NCI-H1563	0.764	0.711	0.687	0.692	–	–	–	–	–	–	–	–	–	1.13	1.18	1.25	1.3	1.18
NCI-H1623	0.446	0.432	0.418	0.447	–	–	–	–	–	–	–	–	–	–	–	–	–	–
NCI-H1648	0.249	0.299	0.261	0.282	0.381	0.335	0.455	0.462	–	–	–	–	–	–	–	–	–	–
NCI-H1650	0.611	0.66	0.748	0.568	0.642	0.539	0.654	0.65	1.28	1.26	1.44	1.18	1.04	–	–	–	–	–
NCI-H1703	–	–	–	–	–	–	–	–	0.865	0.925	0.344	0.256	0.287	0.441	–	0.264	0.243	0.301
NCI-H1792	0.621	0.747	0.841	0.586	–	–	–	–	–	0.62	0.58	0.627	0.569	–	0.534	0.601	0.522	0.588
NCI-H2170	0.698	0.724	0.749	0.694	0.679	0.808	0.843	0.781	0.519	0.586	0.752	0.542	0.631	–	–	–	–	–
NCI-H2342	0.557	0.602	0.53	0.637	0.676	0.779	0.886	0.731	–	–	–	–	–	–	–	–	–	–
SW 900	0.465	0.575	0.623	0.577	0.382	0.516	0.591	0.525	–	–	–	–	–	–	–	–	–	–
